Values of other authors in publication PMC10090446, “Population pharmacokinetic analysis and dosing optimization of polymyxin B in critically ill patients” (Frontiers in Pharmacology, 2023).
Where two headings read alike, the source gives them in different places. Positions of bridges follow the written chain, without caps; N, C: chain ends. Non-standard residues stand in square brackets, D forms with d. Residues, ends and D or L forms follow the SMILES beside them. *: point of attachment. X1 = CC[C@H](C)CCCCC(=O)*; Dab = NCC[C@H](N)C(=O)O

Settings: cited from earlier work
Source text: TABLE 5 PPK studies of polymyxin B. | column: Estimation of population parameters || Since small samples were employed in this experiment, the non-parametric population modeling algorithm has theoretical advantages over parametric methods in detecting population PK/PD subgroups and outliers ([Goutelle et al., 2022]), so the non-parametric population modeling approach was chosen for modeling in this study. The values of CL (1.24 L h^-1) and V (16.64 L) (Table 3) in this study were in line with the ranges from previous reports, including the CL range (1.2–4.2 L h^-1) ([Sandri et al., 2013]) (Table 3) and the V range (5.63–34.4 L) (Table 5). However, the CL value was lower than t ...

[1] = Acutely ill patients, n = 52, two-compartment model, ref Miglis et al. (2018)
[2] = Critically ill patients with CVVH, n = 53, two-compartment model, ref Wang et al. (2022)
[3] = Critically ill patients with/without CRRT, n = 53, two-compartment model, ref Luo et al. (2022)
[4] = Critically ill patients, n = 24, two-compartment model, ref Sandri et al. (2013)
[5] = Health Volunteers, n = 20, three-compartment model, ref Liu et al. (2021)
[6] = Patients with MDR-GNB infections, n = 46, two-compartment model, ref Wang et al. (2020)
[7] = Patients with/without ECMO, n = 13, non-compartment model, ref Surovoy et al. (2022)

With CC[C@H](C)CCCCC(=O)N[C@@H](CCN)C(=O)N[C@H](C(=O)N[C@@H](CCN)C(=O)N[C@H]1CCNC(=O)[C@H]([C@@H](C)O)NC(=O)[C@H](CCN)NC(=O)[C@H](CCN)NC(=O)[C@H](CC(C)C)NC(=O)[C@@H](Cc2ccccc2)NC(=O)[C@H](CCN)NC1=O)[C@@H](C)O [polymyxin B] (X1-[Dab]T[Dab][Dab][Dab][dF]L[Dab][Dab]T; lactam 4-C) as the molecule, how does the CL (Acutely ill patients, n = 52, 156 samples, two-compartment model, ref Miglis et al. (2018)) read?
Its CL is 2.63 L/h.

What about the Q [1] of the same molecule?
The Q was 2.32 L/h.

And the V1 [1]?
The V1 was 33.8 L.

What about the V2 [1] of the same molecule?
Its V2 is 78.2 L.

And the CL (Clinical Samples, n = 43, 134 samples, one-compartment model, ref Kubin et al. (2018))?
The CL was 2.37 L/h.

And the V (Clinical Samples, n = 43, one-compartment model, ref Kubin et al. (2018))?
Its V is 34.4 L.

And the CLCRRT (Critically ill patients undergoing CRRT, n = 53 with/without CRRT, two-compartment model, ref Luo et al. (2022))?
Its CLCRRT is 1.95 L/h.

And the CL (Critically ill patients with CVVH, n = 53, 275 samples, two-compartment model, ref Wang et al. (2022))?
The CL was 1.95 L/h.

What about the CLCVVH [2] of the same molecule?
Its CLCVVH is 4.52 L/h.

And the Q [2]?
The Q was 2.28 L/h.

And the V [2]?
Its V is 15.0 L.

What about the V2 [2] of the same molecule?
The V2 was 6.54 L.

What about the CLwithoutCRRT (Critically ill patients with/without CRRT, n = 53, 189 samples, two-compartment model, ref Luo et al. (2022)) of the same molecule?
Its CLwithoutCRRT is 1.5 L/h.

What about the Q [3] of the same molecule?
The Q was 1.34 L/h.

What about the V [3] of the same molecule?
The V was 11.7 L.

What about the V2 [3] of the same molecule?
Its V2 is 17.9 L.

And the CL (Critically ill patients, n = 24, 100 samples, two-compartment model, ref Sandri et al. (2013))?
The CL was 1.66 L/h.

What about the Q [4] of the same molecule?
The Q was 8.76 L/h.

What about the V1 [4] of the same molecule?
Its V1 is 5.63 L.

And the V2 [4]?
The V2 was 19.8 L.

What about the CL [5] of the same molecule?
The CL was 1.62 L/h.

What about the Q2 [5] of the same molecule?
The Q2 was 8.4 L/h.

What about the Q3 [5] of the same molecule?
Its Q3 is 0.384 L/h.

What about the V [5] of the same molecule?
Its V is 4.26 L.

And the V2 [5]?
The V2 was 3.66 L.

And the V3 [5]?
Its V3 is 2.7 L.

What about the CL (Individuals with severe infections, n = 35, 139 samples, one-compartment model, ref Manchandani et al. (2018)) of the same molecule?
The CL was 2.5 L/h.

What about the V (Individuals with severe infections, n = 35, one-compartment model, ref Manchandani et al. (2018)) of the same molecule?
The V was 34.3 L.

What about the CL (Patients with MDR-GNB infections, n = 46, 331 samples, two-compartment model, ref Wang et al. (2020)) of the same molecule?
Its CL is 1.786 L/h.

And the Q [6]?
The Q was 13.518 L/h.

And the V1 [6]?
The V1 was 6.218 L.

What about the V2 [6] of the same molecule?
The V2 was 11.922 L.

And the CL (Patients with TDM, n = 32, 112 samples, one-compartment model, ref Yu et al. (2021))?
Its CL is 1.59 L/h.

What about the V (Patients with TDM, n = 32, one-compartment model, ref Yu et al. (2021)) of the same molecule?
Its V is 20.5 L.

What about the CL [7] of the same molecule?
Its CL is 1.16 L/h.

What about the V [7] of the same molecule?
The V was 19.73 L.

What about the CL (Renal transplant patients, n = 50, 151 samples, one-compartment model, ref Li et al. (2021)) of the same molecule?
The CL was 1.18 L/h.

And the V (Renal transplant patients, n = 50, one-compartment model, ref Li et al. (2021))?
The V was 12.09 L.
